Source: patent US12414960B2, “Analogues of oleuropein and oleacein and uses thereof” (Attica Sciences Ltd., priority 2020, dated 2025)

Assays:
[1] = tested on: HeLa cervical cancer cells; assay: XTT cell growth assay, HeLa; assay type: cell-based, human; conditions: Homo sapiens, HeLa, 24 h, NS = not statistically significant, read-out: Effectiveness to suppress HeLa cell growth (cell growth inhibition)
Source text: (§1) The XTT assay is used to measure cellular metabolic activity as an indicator of cell viability, proliferation and cytotoxicity. This non-radioactive, colorimetric assay system was first described by Scudiero, et al. in 1988 (Paull, Kenneth D. et al., J Heterocycl Chem, 1988, 25: 911-914; Scudiero, Dominic A. et al., Cancer Res, 1988, 48: 4827-4833) and improved in subsequent years by several other investigators (Weislow, Owen S. et al., J Natl Cancer Inst, 1989, 81(8): 577-586; Roehm, N. W. et al., J Immunol Methods, 1991, 142: 257-265).
(§2) The XTT assay is based on the reduction of a yellow tetrazolium salt (sodium 3′-[1-(phenylaminocarbonyl)-3,4-tetrazolium]-bis (4-methoxy6-nitro) benzene sulfonic acid hydrate or XTT) to an orange formazan dye by metabolically active cells (FIG. 8). The formazan dye formed is soluble in aqueous solutions and is directly quantified using a scanning multiwell spectrophotometer (ELISA reader). An increase in number of living cells results in an increase in the overall activity of mitochondrial dehydrogenases in the sample. This increase directly correlates to the amount of orange formazan formed, as monitored by the absorbance. Reduced number of living cells leads to reduced metabolism of quaternary salt and therefore reduced absorption.
(§3) Cell viability was assessed using the XTT assay kit (Roche, Mannheim, Germany) as described previously (Kouka, Paraskevi et al., Oxid Med Cell Longev. 2019, Article ID 1870965). Briefly, cancer cells per well were cultured in a 96-well plate in Dulbecco's modified Eagle's medium (DMEM). Following a 24 h incubation, 5, 10 and 50 μM of the tested GS compound was diluted in a serum-free DMEM and administered for 24 h. Subsequently, 50 μL of the XTT reagent (50:1) was added to each well. After 4 h of incubation, the absorbance was monitored at 450 nm and also at 630 nm as a reference wavelength in a BioTek ELx800 microplate reader (BioTek Instruments Inc., Winooski, VT, USA). As a negative control, samples containing serum-free DMEM only were used.
HeLa is a human immortal cell line used in scientific research. It is the oldest and most commonly used human cell line. The line was derived from cervical cancer cells taken on Feb. 8, 1951 from Henrietta Lacks, a patient who died of cancer on Oct. 4, 1951.
(§4) The effects of exemplary compounds on cancer cell lines and one non-tumorigenic cell line (control) were investigated using a high throughput screening assay. More specifically, the effects of the GS compounds on cell growth was evaluated by the XTT assay for cell lines HepG2, HeLa, MCF7 ER+, MDA-MB-231, and MKN-45, and by the Cell Glo luminescence assay for cell lines MIA PaCa-2, HCT-116, MCF-10A, and PANC-1.

[2] = tested on: MDA-MB-231 triple negative breast cancer cells; assay: XTT cell growth assay, MDA-MB-231; assay type: cell-based, human; conditions: NS = not statistically significant; for inhibition at 50 µM: Homo sapiens, MDA-MB-231, 24 h, read-out: Effectiveness to suppress MDA-MB-231 cell growth (cell growth inhibition); for Effectiveness to suppress MDA-MB-231 cell growth (cell growth inhibition): 50 uM, 24 h
Source text: as §1, §2, §3
MDA-MB-231 is a human epithelial breast cancer cell line that was established from a pleural effusion of a person with a metastatic mammary adenocarcinomal and is one of the most commonly used breast cancer cell lines in medical research laboratories.
as §4

[3] = tested on: MIA PaCa-2 pancreatic cancer cells; assay: Cell Glo luminescence cell growth assay, MIA PaCa-2; assay type: cell-based, human; conditions: Homo sapiens, MIA PaCa-2, 24 h, NS = not statistically significant, read-out: Effectiveness to suppress MIA PaCa-2 cell growth (cell growth inhibition)
Source text: (§5) The CellTiter-Glo® Luminescent Cell Viability Assay (Promega Corporation; Madison, WI) is a homogeneous method of determining the number of viable cells in culture based on quantitation of the ATP present, an indicator of metabolically active cells. The homogeneous assay procedure involves adding the single reagent (CellTiter-Glo® Reagent) directly to cells cultured in serum-supplemented medium. The homogeneous “add-mix-measure” format results in cell lysis and generation of a luminescent signal proportional to the amount of ATP present. The amount of ATP is directly proportional to the number of cells present in culture.
(§6) Cancer cells (3,000 cells/well) were harvested in a 96-well plate. Then, the cancer cells were treated with GS compounds and incubated for 24 hours. The MT Cell Viability Substrate, NanoLuc® Enzyme and cell culture medium was equilibrated to 37° C. The 2× RealTime-Glo™ reagent was prepared by diluting the MT Cell Viability Substrate and NanoLuc® Enzyme in 37° C. cell culture medium to a 2× concentration for each reagent. For example, 1 mL of 2× RealTime-Glo™ reagent was prepared by adding 2 μL of MT Cell Viability Substrate, 1,000×, and 2 μL of NanoLuc® Enzyme, 1,000×, to 996 μL of cell culture medium to form the 2× RealTime-Glo™ reagent. Then, an equal volume of 2× RealTime-Glo™ reagent was added to the cancer cells. The cells were kept for ˜20 minutes in the cell culture incubator and then luminescence was measured by using a plate-reading luminometer.
MIA PaCa-2 is a human pancreatic ductal adenocarcinoma cell line derived from the carcinoma of a person.
as §4

[4] = tested on: MCF-7 ER+ breast cancer cells; assay: XTT cell growth assay, MCF-7 ER+; assay type: cell-based, human; conditions: Homo sapiens, MCF7, 24 h, NS = not statistically significant, read-out: Effectiveness to suppress MCF7 cell growth (cell growth inhibition)
Source text: as §1, §2, §3
MCF-7 ER+ is a human breast cancer cell line isolated in 1970 from a person. Prior to MCF-7, it was not possible for cancer researchers to obtain a mammary cell line that was capable of living longer than a few months.
as §4

[5] = tested on: HCT-116 colon cancer cells; assay: Cell Glo luminescence cell growth assay, HCT-116; assay type: cell-based, human; conditions: NS = not statistically significant; for Effectiveness to suppress HCT-116 cell growth (cell growth inhibition): 1 uM, 24 h; for inhibition at 1 µM: Homo sapiens, HCT-116, 24 h, read-out: Effectiveness to suppress HCT-116 cell growth (cell growth inhibition)
Source text: as §5, §6
HCT-116 is a human colorectal cancer cell lines that has a mutation in RAS proto-oncogene.
as §4

[6] = tested on: MKN-45 gastric cancer cells; assay: XTT cell growth assay, MKN-45; assay type: cell-based, human; conditions: Homo sapiens, MKN-45, 24 h, NS = not statistically significant, read-out: Effectiveness to suppress MKN-45 cell growth (cell growth inhibition)
Source text: as §1, §2, §3
MKN-45 is a human gastric adenocarcinoma, established from the poorly differentiated adenocarcinoma of the stomach (medullary type) of a person.
as §4

[7] = Deoxyribose degradation assay (hydroxyl radical scavenging); assay type: biochemical; conditions: NS = not statistically significant
Protocol: The hydroxyl radical (OH.) is an extremely reactive in biological systems and has been implicated as highly damaging species in free radical pathology, capable of damaging biomolecules of the living cells. These radical combines with nucleotides in DNA and cause strand breakage leading to carcinogenesis, mutagenesis and cytotoxicity. Hydroxyl radical (OH.) scavenging capacity of an extract is directly related to its antioxidant activity.
The effect of extracts on hydroxyl radicals was assayed by using the deoxyribose method. 2-Deoxyribose is degraded on exposure to hydroxyl radicals generated by Fenton's reaction. The ability to neutralize the OH. is estimated as the rate of inhibition of the oxidation of 2-deoxyribose by the OH. (FIG. 5).
The measurement of the hydroxyl radical scavenging activity was evaluated for each of the GS compound by evaluating the pink chromogen absorption at 532 nm by spectrophotometry as described previously (Perjesi, Pal et al., Open Med Chem J., 2011, 5: 61-67

Deoxyribose Degradation Assay IC50 [7] [μg extract/mL] | SMILES | inhibition at 50 µM [1] [%] | inhibition at 50 µM [2] [%] | inhibition at 50 µM [3] [%] | inhibition at 50 µM [4] [%] | Effectiveness to suppress MDA-MB-231 cell growth (cell growth inhibition) [2] | Effectiveness to suppress HCT-116 cell growth (cell growth inhibition) [5] | inhibition at 1 µM [5] [%] | inhibition at 50 µM [6] [%]
 | C/C=C1/[C@H](OC2OC(CO)C(O)C(O)C2O)OC=C(C(=O)O)[C@H]1CC(=O)O (stereo in doubt) [GS2, (2S,4S,E)-4-(carboxymethyl)-3-Ethylidene-2-{[(2R,3S,4R,5R,6S)-3,4,5-trihydroxy-6-(hydroxymethyl)tetrahydro-2H-pyran-2-yl]oxy}-3,4-dihydro-2H-pyran-5-carboxylic acid] | 24.4 | 41.8 |  |  |  |  |  | 
 | C/C=C1/[C@H](OC2OC(CO)C(O)C(O)C2O)OC=C(C(=O)O)[C@H]1CC(=O)OCC12CC3CC(CC(C3)C1)C2 (stereo in doubt) [GS3, (2S,4S,E)-4-(2-(adamantan-1-ylmethoxy)-2-oxoethyl)-3-ethylidene-2-{[(2R,3S,4R,5R,6S)-3,4,5-trihydroxy-6-(hydroxymethyl)tetrahydro-2H-pyran-2-yl]oxy}-3,4-dihydro-2H-pyran-5-carboxylic acid] |  | 64.7 |  |  |  |  |  | 
 | C/C=C1/[C@H](OC2OC(CO)C(O)C(O)C2O)OC=C(C(=O)O)[C@H]1CC(=O)OCCC1CCCCC1 (stereo in doubt) [GS5, (2S,4S,E)-4-(2-(2-cyclohexylethoxy)-2-oxoethyl)-3-ethylidene-2-{[(2R,3S,4R,5R,6S)-3,4,5-trihydroxy-6-(hydroxymethyl)tetrahydro-2H-pyran-2-yl]oxy}-3,4-dihydro-2H-pyran-5-carboxylic acid] |  | 33.6 |  |  |  |  |  | 
 | C/C=C1/[C@H](OC2OC(CO)C(O)C(O)C2O)OC=C(C(=O)O)[C@H]1CC(=O)OCCc1ccc(O)cc1 (stereo in doubt) [GS7, (2S,4S,E)-3-ethylidene-4-(2-(4-hydroxyphenethoxy)-2-oxoethyl)-2{[(2R,3 S,4R,5R,6S)-3,4,5-trihydroxy-6-(hydroxymethyl)tetrahydro-2H-pyran-2-yl]oxy}-3,4dihydro-2H-pyran-5-carboxylic acid] |  | 32.7 |  |  |  |  |  | 
 | C/C=C1/[C@H](OC2OC(CO)C(O)C(O)C2O)OC=C(C(=O)O)[C@H]1CC(=O)OCc1cc2ccccc2[nH]1 (stereo in doubt) [GS8, (2S,4S,E)-4-(2-((1H-indol-2-yl)methoxy)-2-oxoethyl)-3-ethylidene-2-{[(2R,3S,4R,5R,6S)-3,4,5-trihydroxy-6-(hydroxymethyl)tetrahydro-2H-pyran-2-yl]oxy}-3,4-dihydro-2H-pyran-5-carboxylic acid] | 38.2 | 22.5 |  |  |  |  |  | 
 | C/C=C1/[C@H](OC2OC(CO)C(O)C(O)C2O)OC=C(C(=O)O)[C@H]1CC(=O)OCCCSC (stereo in doubt) [GS9, (2S,4S,E)-3-ethylidene-4-(2-(3-(methylthio)propoxy)-2-oxoethyl)-2-{[(2R,3S,4R,5R,6S)-3,4,5-trihydroxy-6-(hydroxymethyl)tetrahydro-2H-pyran-2-yl]oxy}-3,4-dihydro-2H-pyran-5-carboxylic acid] | 20 | 71.2 | 55 | 11.6 | highest suppressive activity | suppressive activity | 41.7 | 
 | C/C=C1/[C@H](OC2OC(CO)C(O)C(O)C2O)OC=C(C(=O)O)[C@H]1CC(=O)OCCOc1ccccc1 (stereo in doubt) [GS10, (2S,4S,E)-3-ethylidene-4-(2-oxo-2-(2-phenoxyethoxy)ethyl)-2-{[(2R,3S,4R,5R,6S)-3,4,5-trihydroxy-6-(hydroxymethyl)tetrahydro-2H-pyran-2-yl]oxy}-3,4-dihydro-2H-pyran-5-carboxylic acid] | 33.5 | 14 | 22 | 58.7 |  | suppressive activity | 25.7 | 31.9
 | C/C=C1/[C@H](OC2OC(CO)C(O)C(O)C2O)OC=C(C(=O)O)[C@H]1CC(=O)SCCc1ccccc1 (stereo in doubt) [GS11, (2S,4S,E)-3-ethylidene-4-(2-oxo-2-(phenethylthio)ethyl)-2-{[(2R,3S,4R,5R,6S)-3,4,5-trihydroxy-6-(hydroxymethyl)tetrahydro-2H-pyran-2-yl]oxy}-3,4-dihydro-2H-pyran-5-carboxylic acid] | 14.4 | 74.3 | 50 | 57.8 | highest suppressive activity | suppressive activity | 32.9 | 
17.6 | C/C=C(/C=O)[C@@H](CC=O)CC(=O)OCC12CC3CC(CC(C3)C1)C2 [GS23, (3S,4E)-4-formyl-3-(2-oxoethyl)hex-4-enoic acid adamantan-1-ylmethyl ester] | 25.2 | 42.7 | 15 | 64.7 |  |  |  | 
